The numbers were not newly measured in patent US12097208B2, “Method for treating nasal, sinonasal, and nasopharyngeal tissue infection and/or inflammation” (OTICARA, INC., priority 2019, dated 2024), which cites them from elsewhere.

The conditions of data set [1]: in vivo.

For the compound `CCC(=O)OCC(=O)[C@@]1(OC(=O)CC)[C@@H](C)C[C@H]2C3CCC4=CC(=O)C=CC4(C)[C@@]3(F)[C@@H](O)CC21C` (stereo partly drawn) [Betamethasone dipropionate, 9-Fluoro-11β,17,21-trihydroxy-16β-methylpregna-1,4-diene-3,20-dione 17,21-dipropionate], the “Biological Half Life” value in data set [1] is reported as 36-54 Hours.

Take `C[C@H]1C[C@@H]2[C@H]([C@@H](O)C[C@@]3(C)[C@H]2CC[C@]3(O)C(=O)CO)[C@@]2(C)C=CC(=O)C=C12` [Methyl-prednisolone]: the “Biological Half Life” value in data set [1] is 18-36 Hours. For `Clc1ccccc1C(c1ccccc1)(c1ccccc1)n1ccnc1` [clotrimazole], the “Antibacterial activity against Staphylococci” value in the data set with Staphylococci is given as “antibacterial activity”. Also, the “Antibacterial activity against Gardnerella vaginalis” value in the data set on Gardnerella vaginalis was “antibacterial activity”. Further, the “Antibacterial activity against Corynebacteria” value in the data set with Corynebacteria is “antibacterial activity”. For the same compound, in the data set on Steptococci, the “Antibacterial activity against Steptococci” value is reported as “antibacterial activity”. For the same compound, the “Effect on Pseudomonas aeruginosa” value in the data set with Pseudomonas aeruginosa is “reduction”. Take `C[C@]12CCC(=O)C=C1CC[C@@H]1[C@@H]2[C@@H](O)C[C@@]2(C)[C@H]1CC[C@]2(O)C(=O)CO` [hydrocortisone]: in data set [1], the “Biological Half Life” value is on record as 8-12 Hours. Consider `C[C@]12C=CC(=O)C=C1CC[C@@H]1[C@@H]2[C@@H](O)C[C@@]2(C)[C@H]1CC[C@]2(O)C(=O)CO` [prednisolone], for which, in data set [1], the “Biological Half Life” value is 18-36 Hours. Turning to `C[C@]12C=CC(=O)C=C1CC[C@H]1[C@@H]3C[C@@H](O)[C@](O)(C(=O)CO)[C@@]3(C)C[C@H](O)[C@@]12F` [triamcinolone], the “Biological Half Life” value in data set [1] was 18-36 Hours.
